Values quoted from earlier work as cited in US20170119738A1, “PHARMACEUTICAL COMPOSITIONS FOR RIZATRIPTAN” (Dr. Reddy's Laboratories, Ltd., priority 2015, published 2017).

Experiments:
[1] = system: human cloned 5-HT1B/1D receptors
[2] = system: migraine headache

binding affinity [1]: high affinity
SMILES: CN(C)CCc1c[nH]c2ccc(Cn3cncn3)cc12 [Rizatriptan, N,N-dimethyl-2-[5-(1H-1,2,4-triazol-1-ylmethyl)-1H-indol-3-yl]ethanamine]
pain-free response at 2 hours, symptom-free response at 2 hours, 24 hour sustained pain-free response ([2]; oral 10 mg vs oral sumatriptan, naratriptan, zolmitriptan (Adelman et al. 2001)): more effective | effectiveness for pain relief (PR) and pain freedom (PF) ([2]; oral 10 mg vs other oral triptans (Ng-Mak et al. 2007)): significantly more effective than other oral triptans
